One assay deals with KRasG12D (Homo sapiens, UniProt P01116, G12D). Nature of the assay: KRAS inhibitory activity test, TR-FRET (inhibition of binding of KRasG12D to GTP, SOS/GTP nucleotide exchange). The assay is classed as biochemical. Particulars: read-out: IC50 values of the compounds for inhibiting KRAS enzymes, G12D. The procedure, abridged:
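KRasG12D preloaded with Bodipy-GDP plus Tb-streptavidin (3 nM Kras/0.5 nM Tb-SA/30 nM Bodipy-GDP) incubated 1 h at rt with compound (10-point 3-fold series). SOS/GTP mixture then added for 1 h at rt. TR-FRET signal read; IC50 calculated.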
On the technique in general: Time-resolved FRET reads energy transfer from a long-lived donor to a nearby acceptor.

Assay [1] deals with p-ERK in NCI-H727 (G12V) cells. Nature of the assay: Cellular p-ERK inhibition assay (HTRF). The class given is cell-based. The note with it: Homo sapiens, 1 hour with compound, read-out: IC50 (nM) of the compounds on the inhibition of p-ERK in tumor cells, NCI-H72 7. On the procedure:
(§1) Cells were seeded in clear 96-well cell culture plates, with 80 µL of cell suspension per well, containing 8000 cells per well. The plates were incubated overnight at 37°C using a CO2 incubator. 2 µL of the compound was added to 78 µL of cell culture medium, mixed well, and then 20 µL of the compound solution was added to the corresponding wells of the cell culture plate. The plates were returned to the CO2 incubator for another hour. After incubation, the cell supernatant was discarded, and 50 µL of the […] was added to the cell culture plate. Add 1X cell lysis buffer to each well and incubate at room temperature with shaking for 30 minutes. Dilute Phospho-ERK1/2 Eu Cryptate antibody and Phospho-ERK1/2 d2 antibody 20-fold using detection buffer. Transfer 16 µL of cell lysis supernatant to each well in a new 384 white microplate, then add 2 µL of Phospho-ERK1/2 Eu Cryptate antibody diluent and 2 µL of Phospho-ERK1/2 d2 antibody diluent. Incubate at room temperature for at least 4 hours. After incubation, read the HTRF excitation (320 nm) and emission (615 nm, 665 nm) using a multilabel analyzer. Calculate the IC50 of the analyte. "++++" indicates IC50≤ 10 nM; "+++" indicates 10 nM < IC50≤ 100 nM; "++" indicates 100 nM < IC50≤ 2000 nM; "+" indicates 2000 nM < IC50. Table 2. IC50 (nM) of the compounds on the inhibition of p-ERK in tumor cells.

Assay [2] deals with p-ERK in AsPC-1 (G12D) cells. Nature of the assay: Cellular p-ERK inhibition assay (HTRF). The class given is cell-based. Particulars: Homo sapiens, ASPC1, 1 hour with compound, read-out: IC50 (nM) of the compounds on the inhibition of p-ERK in tumor cells, AsPC-1. As for the experimental part:
as §1

In assay [3] the test system is p-ERK in NCI-H358 (G12C) cells. Briefly: Cellular p-ERK inhibition assay (HTRF). The assay is classed as cell-based. The note with it: Homo sapiens, 1 hour with compound, read-out: IC50 (nM) of the compounds on the inhibition of p-ERK in tumor cells, NCI-H35 8. On the procedure:
as §1

Assay [4] concerns p-ERK in PSN-1 (G12R) cells. Briefly: Cellular p-ERK inhibition assay (HTRF). The note with it: Homo sapiens, PSN1, 1 hour with compound, read-out: IC50 (nM) of the compounds on the inhibition of p-ERK in tumor cells, PSN-1. The assay is classed as cell-based. On the procedure:
as §1

Assay [5] has as its system p-ERK in HCT116 (G13D) cells. Nature of the assay: Cellular p-ERK inhibition assay (HTRF). The note with it: Homo sapiens, HCT-116, 1 hour with compound, read-out: IC50 (nM) of the compounds on the inhibition of p-ERK in tumor cells, HCT11 6. The assay is classed as cell-based. On the procedure: as §1
Assay [6] deals with p-ERK in MKN1 (WTdep) cells. Nature of the assay: Cellular p-ERK inhibition assay (HTRF). The class given is cell-based. Particulars: Homo sapiens, MKN-1, 1 hour with compound, read-out: IC50 (nM) of the compounds on the inhibition of p-ERK in tumor cells, MKN 1. As for the experimental part:
as §1

Assay [7] concerns p-ERK in A549 (G12S) cells. Nature of the assay: Cellular p-ERK inhibition assay (HTRF). The class given is cell-based. The note with it: 1 hour with compound. On the procedure:
as §1

For assay [8], the system named is p-ERK in NCI-H460 (Q61H) cells. Nature of the assay: Cellular p-ERK inhibition assay (HTRF). The class given is cell-based. Particulars: Homo sapiens, 1 hour with compound, read-out: IC50 (nM) of the compounds on the inhibition of p-ERK in tumor cells, NCI-H46 0. As for the experimental part: as §1

In the case of `Cc1cc(N)c(F)c(C2Cc3nc(OC[C@@]45CCCN4C[C@H](F)C5)nc(N4C[C@H]5CC[C@@H](C4)N5)c3CS2(=O)=O)c1C(F)(F)F` (stereo partly drawn) [Compound 1], the IC50 was at most 10 nM at KRasG12D; at most 10 nM in [1]; at most 10 nM in [2]; at most 10 nM in assay [3]; 100 to 2000 nM in assay [4]; at most 10 nM in assay [5]. Besides, the IC50 in [6] and in assay [8] was at most 10 nM throughout. Further, in assay [7], the “IC50 (nM) of the compounds on the inhibition of p-ERK in tumor cells, A54 9” value is reported as “+++ +”.

For `Cc1cc(O)c(F)c(C2Cc3nc(OC[C@@]45CCCN4C[C@H](F)C5)nc(N4C[C@H]5CC[C@@H](C4)N5)c3CS2(=O)=O)c1C(F)(F)F` (stereo partly drawn) [Compound 2, 4-((1R,5S)-3,8-diazabicyclo[3.2.1]octane-3-yl)-7-(2-fluoro-3-hydroxy-5-methyl-6-(trifluoromethyl)phenyl)-2-(((2R,7AS)-2-fluorotetrahydro-1H-pyrrolazin-7a(5H)-yl)methoxy)-7,8-dihydro-5H-thiopyrano[4,3-d]pyrimidine-6,6-dioxide], the IC50 on KRasG12D was at most 10 nM; in assay [2], at most 10 nM; in [4] it was 100 to 2000 nM; in [5] it was at most 10 nM.

In the case of `Cc1cc(N)nc(C2Cc3nc(OC[C@@]45CCCN4C[C@H](F)C5)nc(N4C[C@H]5CC[C@@H](C4)N5)c3CS2(=O)=O)c1C(F)(F)F` (stereo partly drawn) [Compound 3, 7-(6-amino-4-methyl-3-(trifluoromethyl)pyridin-2-yl)-4-((1R,5S)-3,8-diazabicyclo[3. 2.1]octane-3-yl)-2-(((2R,7AS)-2-fluorotetrahydro-1H-pyrrolazin-7a(5H)-yl)methoxy) -7,8-dihydro-5H-thiopyrano[4,3-d]pyrimidine-6,6-dioxide], the IC50 on KRasG12D is at most 10 nM; in assay [2], at most 10 nM; in assay [4], 100 to 2000 nM; in assay [5], at most 10 nM.

For the molecule `Cc1cc(O)nc(C2Cc3nc(OC[C@@]45CCCN4C[C@H](F)C5)nc(N4C[C@H]5CC[C@@H](C4)N5)c3CS2(=O)=O)c1C(F)(F)F` (stereo partly drawn) [Compound 4, 4-((1R,5S)-3,8-diazabicyclo[3.2.1]octane-3-yl)-2-(((2R,7AS)-2-fluorotetrahydro-1H-pyrrolazin-7a(5H)-yl)methoxy)-7-(6-hydroxy-4-methyl-3-(trifluoromethyl)pyridin-2-yl)-7,8-dihydro-5H-thiopyrano[4,3-d]pyrimidine-6,6-dioxide], the IC50 is at most 10 nM on KRasG12D, at most 10 nM in [2], 100 to 2000 nM in assay [4] and at most 10 nM in assay [5].

With `Cc1cc(N)c(F)c(C2Cc3nc(OC[C@@]45CCCN4C[C@H](F)C5)nc(N4CCC[C@@](C)(O)C4)c3CS2(=O)=O)c1C(F)(F)F` (stereo partly drawn) [Compound 5, 7-(3-amino-2-fluoro-5-methyl-6-(trifluoromethyl)phenyl)-2-(((2R,7AS)-2-fluorotetra hydro-1H-pyrrolazin-7a(5H)-yl)methoxy)-4-((R)-3-hydroxy-3-methylpiperidin-1-yl)-7,8-dihydro-5H-thiopyrano[4,3-d]pyrimidine 6,6-dioxide], the 50% inhibitory concentration (IC50) at KRasG12D is at most 10 nM; in [1], at most 10 nM; in assay [2], at most 10 nM; in assay [3], at most 10 nM; in [4], 100 to 2000 nM; in assay [5], at most 10 nM. In addition, the IC50 in assay [6] and in assay [8] was at most 10 nM throughout. Further, in [7], the “IC50 (nM) of the compounds on the inhibition of p-ERK in tumor cells, A54 9” value is listed as “+++ +”.

With `Cc1cc(O)c(F)c(C2Cc3nc(OC[C@@]45CCCN4C[C@H](F)C5)nc(N4CCC[C@@](C)(O)C4)c3CS2(=O)=O)c1C(F)(F)F` (stereo partly drawn) [Compound 6, 7-(2-fluoro-3-hydroxy-5-methyl-6-(trifluoromethyl)phenyl)-2-(((2R,7AS)-2-fluorotetrahydro-1H-pyrrolazin-7a(5H)-yl)methoxy)-4-((R)-3-hydroxy-3-methylpiperidin-1-yl)-7,8-dihydro-5H-thiopyrano[4,3-d]pyrimidine 6,6-dioxide], the IC50 on KRasG12D was at most 10 nM; in assay [1], at most 10 nM; in assay [2] it was at most 10 nM; in [3], at most 10 nM; in assay [4], 100 to 2000 nM; in [5], at most 10 nM. Also, the IC50 in assay [6] and in assay [8] was at most 10 nM each time. In [7], the “IC50 (nM) of the compounds on the inhibition of p-ERK in tumor cells, A54 9” value was “+++ +”.

Consider `Cc1cc(N)nc(C2Cc3nc(OC[C@@]45CCCN4C[C@H](F)C5)nc(N4CCC[C@@](C)(O)C4)c3CS2(=O)=O)c1C(F)(F)F` (stereo partly drawn) [Compound 7, 7-(6-amino-4-methyl-3-(trifluoromethyl)pyridin-2-yl)-2-(((2R,7AS)-2-fluorotetrahydro-1H-pyrrolazin-7a(5H)-yl)methoxy)-4-((R)-3-hydroxy-3-methylpiperidin-1-yl)-7,8-d ihydro-5H-thiopyrano[4,3-d]pyrimidine 6,6-dioxide], for which the IC50 was at most 10 nM at KRasG12D, at most 10 nM in [2], 100 to 2000 nM in [4] and at most 10 nM in assay [5].

`Cc1cc(O)nc(C2Cc3nc(OC[C@@]45CCCN4C[C@H](F)C5)nc(N4CCC[C@@](C)(O)C4)c3CS2(=O)=O)c1C(F)(F)F` (stereo partly drawn) [Compound 8, 2-(((2R,7AS)-2-fluorotetrahydro-1H-pyrrolazin-7a(5H)-yl)methoxy)-4-((R)-3-hydroxy-3-methylpiperidin-1-yl)-7-(6-hydroxy-4-methyl-3-(trifluoromethyl)pyridin-2-yl)-7,8-dihydro-5H-thiopyrano[4,3-d]pyrimidine-6,6-dioxide]: the IC50 is at most 10 nM at KRasG12D, at most 10 nM in [2], 100 to 2000 nM in assay [4] and at most 10 nM in assay [5].

As to “(7S)-7-(6-amino-4-methyl-3-(trifluoromethyl)pyridin-2-yl)-2-(((2R,7AS)-2-fluorotetr ahydro-1H-pyrrolazin-7a(5H)-yl)methoxy)-4-((R)-3-hydroxy-3-methylpiperidin-1-yl) -7,8-dihydro-5H-thiopyrano[4,3-d]pyrimidine-6,6-dioxide [Compound 8A]”, the IC50 on KRasG12D is at most 10 nM.

A word on the IC50: it is the concentration that inhibits the measured activity by half.

Source of the values: patent EP4818178A1, “PREPARATION AND USE OF PYRIMIDOTHIOPYRANONE KRAS MUTANT PROTEIN INHIBITOR” (Ya Therapeutics Inc, priority 2024, dated 2025).
